This is an account of results in US8288350B2, “Methods to prevent and treat diseases” (Nour Heart, Inc., priority 2006, dated 2012).

The subject of assay [1] is Neutrophils isolated from human peripheral blood. The assay is described as follows: Inhibition of neutrophil chemotaxis induced by human vascular Nourin (vein graft samples, 96 well chemotaxis plates). In kind it is cell-based. The procedure: Isolated Human Vein Grafts: Patients' leg veins were removed from five patients scheduled for coronary bypass surgery. The samples for each patient were distended for 10 minutes at 300 mm Hg pressure and incubated in buffer (HBSS) for 1 hour at room temperature. Undistended vein grafts were incubated at room temperature in HBSS for one hour and then the solutions were tested for chemotactic activity.
Chemotaxis Assay: The chemotactic activity of vein samples was tested using standard chemotaxis assay. Briefly, neutrophils were isolated from human peripheral blood and labeled by fluorescence dye. These labeled neutrophils were used as migratory cells and placed on the top chamber of the 96 well chemotaxis plates. The vein samples were placed at the bottom wells of the plate. A filter was placed in between and the ability of the tested samples to stimulate the migration of neutrophils across the membrane was determined by incubating the chamber at 37° C. for 1 hour. The standard synthetic chemoattractant f-Met-Leu-Phe (f-MLF (SEQ ID NO:11)) was used as the positive control for 100% chemotactic response. Hank's Balanced Salt Solution (HBSS) was the negative control for random migration. Neutrophil migration was reported as the number of labeled neutrophils detected at the bottom wells which crossed the membrane filter in response to the test solutions. The samples were tested in triplicate wells.
Inhibition of the human vascular Nourin by the N-formylmethionyl blocker t-Boc-FLFLF (SEQ ID NO:2): t-Boc FLFLF (SEQ ID NO:2) is a FPR antagonist and was tested for its ability to inhibit Nourin activity on neutrophil migration. In the chemotaxis chamber, t-Boc-FLFLF (SEQ ID NO:2) was used at a final concentrations of 10^−5 Molar. […] In one human sample, t-Boc-FLFLF (SEQ ID NO:2) inhibited 100% of neutrophil chemotaxis. Similarly, the FPR antagonist Spinorphin inhibited neutrophil chemotaxis stimulated by Nourin.

Assay [2] has the same test system. Nature of the assay: Inhibition of fMLF chemotactic activity (chemotaxis chamber). In kind it is cell-based. Conditions: FIG. 3.
Assay [3] has the same test system. Nature of the assay: Inhibition of neutrophil chemotaxis induced by chemotactic factor released by H1N1-infected MDCK cells (modified chemotaxis chamber). In kind it is cell-based. As to conditions: concentrations about 10^-5 to 10^-3 Molar; supernatant of MDCK cells incubated with H1N1 for 6 hours.
Assay [4] can be described thus: Global warm ischemia by aortic cross clamping, then working Longerdorff heart. In kind it is in vivo, dog. The procedure: Cyclocreatine (25 gm in 500 ml saline) was injected intravenously into a dog one hour before the induction of global warm ischemia. Control dogs received saline. All dogs underwent one hour of global warm ischemia by cross clamping the aorta. After the one hour of warm ischemia, hearts were removed, perfused for an additional four hours with buffer containing 1% cyclocreatine ([…]), and then placed on a working Longerdorff to measure cardiac function. After the initiation of the aortic cross clamping, cyclocreatine-treated heart continued to beat for 9 minutes during warm ischemia, while the control heart stopped beating after 2 minutes. Similarly, myocardial pH was 7.04 in the cyclocreatine-treated heart compared to pH 6.00 in control heart when measured 6 minutes after the induction of warm ischemia.
The results indicated a reduction of the caspase enzyme activities in the cyclocreatine dog (26-76% reduction of baseline) compared to the significant stimulation observed in control dogs (1.44-3.86-fold increase over baseline). […] Cyclocreatine treatment may stimulate the anti-apoptotic members of the family such as Bcl-2 and/or Bcl-x, or inhibit the pro-apoptotic members of the family such as Bak, Bax, and Bim.

Where no end group is shown, it is not given here. The star is where a group is joined. Boc = CC(C)(C)OC(=O)*

As to “LVVYPWT [Spinorphin, Leu-Val-Val-Tyr-Pro-Trp-Thr]”, the “inhibition of neutrophil chemotaxis stimulated by Nourin” value in assay [1] is reported as “inhibited”.

“t-Boc-Phe-Leu-Phe-Leu-Phe (Boc-FLFLF; not fully specified (residues 2, 4); printed as t-Boc-Phe-Leu-Phe-Leu-Phe)”: the “inhibition of fMLF chemotactic activity” value in assay [2] is recorded as “inhibits”. For the same molecule, the “inhibition of neutrophil chemotaxis induced by viral chemotactic factor” value in assay [3] was 30%-100%. The “inhibition of neutrophil chemotaxis induced by vascular Nourin” value in assay [1] (10^-5 M final concentration) is listed as “up to 60%”. The “inhibition of neutrophil chemotaxis induced by vascular Nourin, one human sample” value in assay [1] (one human sample) was found to be 100%.

Regarding `NC1=NCCN1CC(=O)O` [cyclocreatine], in assay [4] (6 minutes after induction of warm ischemia, control pH 6.00), the “myocardial pH” value turned out to be 7.04. In assay [4] (control dogs 1.44-3.86-fold increase over baseline), the “reduction of caspase enzyme activities” value is reported as 26-76 % reduction of baseline. Moreover, the “time heart continued to beat during warm ischemia after aortic cross clamping” value in assay [4] (dog, 25 gm in 500 ml saline i.v. one hour before ischemia, control 2 minutes) was determined as 9 min. In assay [4] (dog, in vivo), the “TNF-α released by monocytes” value is on record as “reduced”; the “inflammation/pain and injury induced by inflammation” value is reported as “reduced”; the “level of the cardiac-derived leukocyte factor” value is “reduced”. The “contractility on the Longerdorff working heart” value in assay [4] (one-hour analysis, control strong only first 15-20 minutes) was “strong contractility throughout the one-hour analysis”. For the same molecule, in assay [4] (treated heart vs controls), the “apoptosis as measured by caspase enzyme activity” value is “significant reduction” and the “myocardial ATP compared to controls” value is recorded as “three-fold increase”. In assay [4] (vs control), the “intracellular edema as measured by MRI” value is “reduced” and the “myocardial tissue lactic acidosis (per MRI)” value is recorded as “reduced”. Also, the “level of cell injury marker malondialdehyde” value in assay [4] (vs controls) is listed as “reduced”.
